Among the test systems are SF-268 CNS; OVCAR-4 ovarian; OVCAR-8 ovarian; CCRF-CEM leukemia; SF-295 CNS; COLO 205 colon; HL-60(TB) leukemia; HOP-62 NSCLC; SR leukemia; NCI-H460 lung.
Holding throughout (assay): growth of human tumour cells (NCI), 48 h

Several values for one entry are separate records, joined by “and”; a condition that tells them apart may be missing. Equal entries are not always repeated.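 Following 48 hours of exposure in 96-well plates, responses at five concentrations were used to interpolate endpoints linearly. At the GI50, growth is halved. TGI: total growth inhibition.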 A value given as a limit tells only on which side of the number the result lay.

On to `CN(Cc1cnc2nc(N)nc(N)c2n1)c1ccc(C(=O)NC(CCC(=O)O)C(=O)O)cc1` (stereo not drawn), for which the GI50 was 0.247 µM with SF-268 CNS; greater than 100 µM in the assay with OVCAR-4 ovarian; 0.0532 µM with OVCAR-8 ovarian; 0.056 µM in the assay on CCRF-CEM leukemia; 0.175 µM with SF-295 CNS; 0.0742 µM with HL-60(TB) leukemia. In addition, the results for the GI50 in the assay on HOP-62 NSCLC, with SR leukemia and in the assay on NCI-H460 lung were 0.394 µM, 0.05 µM and 0.05 µM, respectively. Moreover, the TGI is greater than 100 µM in the assay on SF-268 CNS; greater than 100 µM in the assay on OVCAR-4 ovarian; greater than 100 µM with OVCAR-8 ovarian; greater than 100 µM in the assay with CCRF-CEM leukemia; 36.5 µM in the assay on SF-295 CNS; greater than 100 µM in the assay with COLO 205 colon. In addition, the TGI with HL-60(TB) leukemia, in the assay on HOP-62 NSCLC, in the assay on SR leukemia and with NCI-H460 lung was greater than 100 µM each time.

For `CC1(C)OCN(c2ccc(Cl)cc2)Cn2c1nc1ccccc12`, the TGI in the assay on SF-268 CNS was greater than 100 µM; with OVCAR-4 ovarian it was greater than 100 µM; in the assay on OVCAR-8 ovarian, greater than 100 µM; in the assay with CCRF-CEM leukemia it was greater than 100 µM; with SF-295 CNS it was greater than 100 µM; in the assay with COLO 205 colon it was 12 µM. The TGI with HL-60(TB) leukemia is 47.8 µM; with HOP-62 NSCLC, greater than 100 µM; with SR leukemia, 98.6 µM; with NCI-H460 lung it was greater than 100 µM.

For `O=Nc1c(O)ccc2ccccc12`, the GI50 with SF-268 CNS is 3.04 µM; with OVCAR-4 ovarian, 1.29 µM; in the assay with OVCAR-8 ovarian it was 2.28 µM; in the assay on CCRF-CEM leukemia it was 3.16 µM; with SF-295 CNS, 11.7 µM; in the assay with COLO 205 colon it was 7.81 µM. Also, the GI50 was 2.42 µM in the assay with HL-60(TB) leukemia, 12.9 µM in the assay on HOP-62 NSCLC, 2.16 µM in the assay on SR leukemia and 14.2 µM with NCI-H460 lung. Besides, the TGI came to 10.6 µM with SF-268 CNS; 2.57 µM with OVCAR-4 ovarian; 7.04 µM in the assay with OVCAR-8 ovarian; 11.4 µM with CCRF-CEM leukemia; 24.4 µM in the assay with SF-295 CNS; 21.8 µM in the assay with COLO 205 colon. The TGI in the assay with HL-60(TB) leukemia was found to be 6.04 µM; with HOP-62 NSCLC, 26.1 µM; in the assay on SR leukemia, 5.86 µM; with NCI-H460 lung, 35.7 µM.

Regarding `CN(O)C(=O)Cc1ccccc1`, the TGI in the assay on SF-268 CNS, in the assay on OVCAR-4 ovarian, in the assay on OVCAR-8 ovarian, in the assay on CCRF-CEM leukemia, in the assay with SF-295 CNS and with COLO 205 colon was greater than 100 µM in each case. In addition, the TGI in the assay with HL-60(TB) leukemia, in the assay with HOP-62 NSCLC, in the assay on SR leukemia and with NCI-H460 lung was greater than 100 µM in each case.

With `Cc1nc(NC(=O)N2CCC[C@H]2C(N)=O)sc1-c1ccnc(C(C)(C)C(F)(F)F)c1`, the GI50 with SF-268 CNS is 9.71 µM and 9.76 µM; in the assay with OVCAR-4 ovarian, 13.3 µM and > 10 µM; in the assay with OVCAR-8 ovarian it was 8.28 µM and > 10 µM; in the assay on CCRF-CEM leukemia it was 5.13 µM and 5.71 µM; in the assay on SF-295 CNS it was 2.79 µM and 4.1 µM; in the assay on COLO 205 colon it was 2.75 µM and 1.38 µM. For the same compound, the GI50 in the assay on HL-60(TB) leukemia is 1.04 µM and 0.289 µM; in the assay with HOP-62 NSCLC, 8.06 µM and > 10 µM; in the assay with SR leukemia it was 8.94 µM and > 10 µM; in the assay on NCI-H460 lung, 1.36 µM and 2.02 µM. The TGI with SF-268 CNS is greater than 86.5 µM; with OVCAR-4 ovarian, greater than 75.3 µM; with OVCAR-8 ovarian it was 76.2 µM and > 10 µM; in the assay with CCRF-CEM leukemia, 75.4 µM and > 10 µM; with SF-295 CNS it was 16 µM and > 10 µM; in the assay on COLO 205 colon it was 19.6 µM and > 10 µM. Moreover, the TGI was 37.3 µM and > 10 µM in the assay on HL-60(TB) leukemia; greater than 75.1 µM in the assay with HOP-62 NSCLC; 44.1 µM and > 10 µM in the assay on SR leukemia; greater than 100 µM in the assay with NCI-H460 lung.

On to `Cn1cnc([N+](=O)[O-])c1Sc1ncnc2c1ncn2C1OC(CO)C(O)C1O` (stereo not drawn), for which the GI50 is 18.4 µM with SF-268 CNS; 45.3 µM with OVCAR-4 ovarian; 6.19 µM in the assay on OVCAR-8 ovarian; 21.7 µM in the assay on CCRF-CEM leukemia; 2.95 µM with SF-295 CNS; 15 µM in the assay on COLO 205 colon. The GI50 with HL-60(TB) leukemia is 22.6 µM; in the assay on HOP-62 NSCLC, 2 µM; in the assay with SR leukemia it was 5.2 µM; in the assay on NCI-H460 lung, 5.72 µM. The TGI in the assay with SF-268 CNS was greater than 100 µM; in the assay on OVCAR-4 ovarian, greater than 100 µM; in the assay with OVCAR-8 ovarian, greater than 100 µM; in the assay on CCRF-CEM leukemia, greater than 100 µM; in the assay on SF-295 CNS, greater than 100 µM; with COLO 205 colon it was 61 µM. Moreover, the TGI with HL-60(TB) leukemia, in the assay with HOP-62 NSCLC, with SR leukemia and in the assay with NCI-H460 lung was greater than 100 µM in each case.

With `CC(=O)Oc1cccc2c1C(=O)c1c(OC(C)=O)cc(C)cc1C2=O`, the TGI in the assay with SF-268 CNS, in the assay on OVCAR-4 ovarian, in the assay on OVCAR-8 ovarian, in the assay with CCRF-CEM leukemia, in the assay with SF-295 CNS and in the assay on COLO 205 colon was greater than 100 µM each time. Besides, the TGI in the assay on HL-60(TB) leukemia, in the assay on HOP-62 NSCLC, in the assay with SR leukemia and in the assay with NCI-H460 lung was greater than 100 µM throughout.

Consider `Oc1ccc2ccccc2c1N=Nc1ccccc1`, for which the GI50 in the assay on SF-268 CNS was 25 µM and > 63.8 µM; in the assay with SF-295 CNS, 39.6 µM and > 90.3 µM. For the same compound, the TGI with SF-268 CNS, with OVCAR-4 ovarian, in the assay on OVCAR-8 ovarian, with CCRF-CEM leukemia, in the assay on SF-295 CNS and in the assay with COLO 205 colon was greater than 100 µM in each case. Further, the TGI with HL-60(TB) leukemia, with HOP-62 NSCLC, in the assay on SR leukemia and in the assay with NCI-H460 lung was greater than 100 µM throughout.

For the compound `C[Si](C)(C)/C=C/CN1C(=O)CCC1O` (stereo not drawn), the TGI in the assay with SF-268 CNS, in the assay on OVCAR-4 ovarian, in the assay with OVCAR-8 ovarian, in the assay with CCRF-CEM leukemia, in the assay on SF-295 CNS and in the assay with COLO 205 colon was greater than 100 µM each time. Further, the TGI in the assay on HL-60(TB) leukemia, with HOP-62 NSCLC, in the assay with SR leukemia and in the assay with NCI-H460 lung was greater than 100 µM in each case.

For the compound `COc1ccc(/C=C(\C#N)c2cc3ccccc3n2C)cc1`, the GI50 in the assay with SF-268 CNS was 2.52 µM; in the assay on OVCAR-4 ovarian, 1.09 µM; in the assay on OVCAR-8 ovarian, 0.56 µM; in the assay on CCRF-CEM leukemia, 0.338 µM; in the assay on SF-295 CNS, 0.355 µM; in the assay on COLO 205 colon it was 0.366 µM. Further, the GI50 with HL-60(TB) leukemia is 0.262 µM; with HOP-62 NSCLC, 0.497 µM; with SR leukemia, 0.176 µM; in the assay on NCI-H460 lung, 0.389 µM. For the same compound, the TGI with SF-268 CNS was greater than 100 µM; in the assay with OVCAR-4 ovarian, greater than 100 µM; with OVCAR-8 ovarian it was greater than 100 µM; with CCRF-CEM leukemia, greater than 100 µM; with SF-295 CNS, greater than 28.2 µM; with HOP-62 NSCLC, greater than 100 µM. The compound further came in with a TGI with NCI-H460 lung of 37.9 µM.

For the origin of these results see PubChem BioAssay (NCI).
